What all share (assay type): functional, cell-based
Assay [1] has as its system HeLa. Kind of assay: Cytotoxicity against human HeLa cells by MTT assay.
Assay [2] concerns A549. Kind of assay: Cytotoxicity against human A549 cells by MTT assay. Background: Tetrazolium dyes change colour on reduction, which living cells bring about.
Assay [3] deals with MCF7. The assay can be described thus: Cytotoxicity against human MCF7 cells by MTT assay.
Assay [4] has as its system MDA-MB-231. The assay can be described thus: Cytotoxicity against human MDA-MB-231 cells by MTT assay.

Molecules are shown by their SMILES.

Regarding `Cc1oc2c3c(ccc2c(=O)c1C)OC[C@H]1[C@@H]3N(Cc2ccccc2)OC1(C)C`, the IC50 (as a rule, the point on the concentration scale where inhibition reaches its midpoint) in assay [1] is more than 100 µM; in assay [2], 17.9 µM; in assay [3], 5.78 µM; in assay [4], 14.5 µM.

With `Cc1oc2c3c(ccc2c(=O)c1C)OC[C@H]1[C@@H]3N(C2CCCCC2)OC1(C)C`, the IC50 in assay [1] was more than 100 µM; in assay [2], 8.96 µM; in assay [3], more than 100 µM; in assay [4], 7.56 µM.

On to `COc1ccc(CN2OC(C)(C)[C@H]3COc4ccc5c(=O)c(C)c(C)oc5c4[C@H]32)cc1`, for which the concentration for half-maximal inhibition (IC50) in assay [1] was more than 100 µM; in assay [2] it was 11.2 µM; in assay [3] it was 5.59 µM; in assay [4] it was 7.81 µM.

On to `Cc1ccc(CN2OC(C)(C)[C@H]3COc4ccc5c(=O)c(C)c(C)oc5c4[C@H]32)cc1`, for which the IC50 in assay [1] amounted to 18.2 µM; in assay [2], 8.92 µM; in assay [3], 26.5 µM; in assay [4] it was 5.64 µM.

For the compound `Cc1oc2c3c(ccc2c(=O)c1C)OC[C@H]1[C@@H]3N(Cc2ccc(C(C)C)cc2)OC1(C)C`, the IC50 in assay [1] was more than 100 µM; in assay [2], more than 100 µM; in assay [3], 7.96 µM; in assay [4] it was 6.25 µM.

With `Cc1oc2c3c(ccc2c(=O)c1C)OC[C@H]1[C@@H]3N(Cc2ccc(F)cc2)OC1(C)C`, the IC50 was determined as 9.54 µM in assay [1], 12.8 µM in assay [2], 10.1 µM in assay [3] and 7.9 µM in assay [4].

As to `Cc1coc2c3c(ccc2c1=O)OC[C@H]1[C@@H]3N(Cc2ccccc2)OC1(C)C`, the IC50 in assay [1] is 6.61 µM; in assay [2], more than 100 µM; in assay [3], more than 100 µM; in assay [4] it was more than 100 µM.

Regarding `COc1ccc(CN2OC(C)(C)[C@H]3COc4ccc5c(=O)c(C)coc5c4[C@H]32)cc1`, the IC50 in assay [1] was 6.54 µM; in assay [2], 29.4 µM; in assay [3] it was 7.38 µM; in assay [4] it was more than 100 µM.

`Cc1coc2c3c(ccc2c1=O)OC[C@H]1[C@@H]3N(C2CCCCC2)OC1(C)C`: the IC50 in assay [1] amounted to 17.5 µM; in assay [2] it was 0.194 µM; in assay [3] it was 22.7 µM; in assay [4], 17.4 µM.

Turning to `Cc1ccc(CN2OC(C)(C)[C@H]3COc4ccc5c(=O)c(C)coc5c4[C@H]32)cc1`, the IC50 in assay [1] is more than 100 µM; in assay [2], more than 100 µM; in assay [3], 5.3 µM; in assay [4], more than 100 µM.

As to `COc1ccc(CN2OC(C)(C)[C@H]3COc4ccc5c(=O)c(-c6ccccc6)c(C)oc5c4[C@H]32)cc1`, the IC50 in assay [1], in assay [2], in assay [3] and in assay [4] was more than 100 µM in each case.

In the case of `COc1cccc2c1C(=O)c1c(O)c3c(c(O)c1C2=O)C[C@@](O)(C(=O)CO)C[C@@H]3O[C@H]1C[C@H](N)[C@H](O)[C@H](C)O1` [DOXORUBICIN], the IC50 in assay [1] was 0.451 µM; in assay [2] it was 1.21 µM; in assay [3], 1.05 µM; in assay [4] it was 0.501 µM.

Source of the values: ChEMBL document CHEMBL2401725, “Synthesis of new chromeno-annulated cis-fused pyrano[4,3-c]isoxazole derivatives via intramolecular nitrone cycloaddition and their cytotoxicity evaluation” (Bioorg Med Chem Lett, 2013).
